Assay results reported in publication PMC11111408, “Concurrent inhibition of oncogenic and wild-type RAS-GTP for cancer therapy” (Nature, 2024).
Values joined by “and” are separate entries in the source; they are usually repeats but may differ in a detail not shown here. Equal entries are not always repeated.

Columns and labels:
KRAS^G12C = KRAS^G12C (Homo sapiens, UniProt P01116+P62937, G12C); assay: Biochemical RAS–RAF (BRAF RBD) disruption, TR-FRET; set-up: His6-TEV (N); made in house; host or cells: BL21(DE3) Escherichia coli
Text: Time-resolved fluorescence resonance energy transfer (TR-FRET) was used as previously described to assess disruption of the interactions between wild-type RAS or the mutant oncogenic RAS proteins and the RAS-binding domain of BRAF, and to assess the induction of interactions between the RAS proteins and CYPA[12].

[1] = test system: Pa16C cells expressing MEK1 mutants; assay: Proliferation (Calcein AM) of Pa16C cells expressing MEK1 mutants; type: cell-based, human
[2] = test system: NCI-H358 cells (CYPA-high, CYPA-low); assay: pERK (MSD) in NCI-H358 cells with low or high CYPA; settings: NCI-H358, doxycycline-inducible CYPA
Text: NCI-H358 cells were transduced by lentivirus encoding Cas9, a guide RNA targeting PPIA (which encodes CYPA), and the puromycin resistance gene at WarpDrive Bio. Following puromycin selection, Flag–CYPA was introduced under the control of a tet-inducible promoter by lentivirus. Clones with high and low expression levels of Flag–CYPA were isolated at Revolution Medicines.

KRAS^G12V = KRAS^G12V (Homo sapiens, UniProt P01116+P62937, G12V); assay: Cellular RAS–RAF (CRAF RBD) disruption, nano-BRET in U2OS cells; type: cell-based; set-up: expressed in transfected cells; host or cells: U2OS PPIA-KO; Cellular RAS-RAF disruption G12V / Cellular nano-BRET G12V: scale not given here
Text: KRAS4B, or other small GTPases, containing the indicated mutations were cloned in pNLF-N or pHTN plasmids for expression with an N-terminal nanoluciferase or HaloTag fusion, respectively. […] The following day, the cells were collected by Trypsin and reseeded in a white tissue culture-treated 96-well plate in OptiMem phenol red-free medium (Gibco) containing 4% FBS and a 1:1,000 dilution of NanoBRET 618 HaloTag ligand (Promega). For endpoint concentration response curves, vivazine nanoluciferase substrate was added to 1× concentration in OptiMem phenol red-free medium with 4% FBS. Varying concentrations of inhibitor were added and incubated for 1 or 4 h before the nano-BRET signal was measured on a Perkin Elmer Envision plate reader. For kinetic assays, endurazine nanoluciferase substrate was used in place of vivazine, and the plate was placed in a Cytation5 multi-mode reader pre-equilibrated to 37 °C and 5% CO2.

SMILES: CCn1c(-c2cc(N3CCN(C4CC4)CC3)cnc2[C@H](C)OC)c2c3cc(ccc31)-c1csc(n1)C[C@H](NC(=O)[C@H]1[C@@H]3COC[C@@H]31)C(=O)N1CCC[C@H](N1)C(=O)OCC(C)(C)C2 [RMC-7977]
- EC50 (KRAS^G12C): 31.8 nM
- Proliferation of Pa16C cells expressing MEK1 mutant constructs ([1]; MEK1E102-I103del, inhibitor 0.010 nM): 100
- Proliferation of Pa16C cells expressing MEK1 mutant constructs ([1]; MEK1E102-I103del, inhibitor 0.046 nM): 104.2 and 107.7 and 121 and 88.4
- Proliferation of Pa16C cells expressing MEK1 mutant constructs ([1]; MEK1E102-I103del, inhibitor 11.111 nM): 80.9 and 75.7 and 68.8 and 87.1
- Proliferation of Pa16C cells expressing MEK1 mutant constructs ([1]; MEK1E102-I103del, inhibitor 33.333 nM): 72.5 and 68.1 and 61 and 93
- Proliferation of Pa16C cells expressing MEK1 mutant constructs ([1]; MEK1E102-I103del, inhibitor 100.000 nM): 65.9 and 65.1 and 49.1 and 77.1
- Proliferation of Pa16C cells expressing MEK1 mutant constructs ([1]; MEK1E102-I103del, inhibitor 300.000 nM): 58.5 and 56.3 and 42.3 and 60.5
- Proliferation of Pa16C cells expressing MEK1 mutant constructs ([1]; MEK1K57N, inhibitor 0.010 nM): 100
- Proliferation of Pa16C cells expressing MEK1 mutant constructs ([1]; MEK1K57N, inhibitor 0.046 nM): 132.7 and 110.5 and 108.3
- Proliferation of Pa16C cells expressing MEK1 mutant constructs ([1]; MEK1K57N, inhibitor 11.111 nM): 106.5 and 108.3 and 128.9
- Proliferation of Pa16C cells expressing MEK1 mutant constructs ([1]; MEK1K57N, inhibitor 33.333 nM): 101 and 88.9 and 126.9
- Proliferation of Pa16C cells expressing MEK1 mutant constructs ([1]; MEK1K57N, inhibitor 100.000 nM): 86.3 and 76.5 and 119.3
- Proliferation of Pa16C cells expressing MEK1 mutant constructs ([1]; MEK1K57N, inhibitor 300.000 nM): 68.3 and 60.7 and 90.3
- Proliferation of Pa16C cells expressing MEK1 mutant constructs ([1]; MEK1Q56P, inhibitor 0.010 nM): 100
- Proliferation of Pa16C cells expressing MEK1 mutant constructs ([1]; MEK1Q56P, inhibitor 0.046 nM): 111.1 and 128.1 and 116.5
- Proliferation of Pa16C cells expressing MEK1 mutant constructs ([1]; MEK1Q56P, inhibitor 11.111 nM): 109 and 97.6 and 77.9
- Proliferation of Pa16C cells expressing MEK1 mutant constructs ([1]; MEK1Q56P, inhibitor 33.333 nM): 99.6 and 83.8 and 68
- Proliferation of Pa16C cells expressing MEK1 mutant constructs ([1]; MEK1Q56P, inhibitor 100.000 nM): 81.8 and 65.9 and 54.2
- Proliferation of Pa16C cells expressing MEK1 mutant constructs ([1]; MEK1Q56P, inhibitor 300.000 nM): 72.6 and 57.1 and 47.4
- Proliferation of Pa16C cells expressing MEK1 mutant constructs ([1]; MEK1S218D/S222D, inhibitor 0.010 nM): 100
- Proliferation of Pa16C cells expressing MEK1 mutant constructs ([1]; MEK1S218D/S222D, inhibitor 0.046 nM): 98 and 111.5 and 106.4 and 100.9
- Proliferation of Pa16C cells expressing MEK1 mutant constructs ([1]; MEK1S218D/S222D, inhibitor 11.111 nM): 89.6 and 94.3 and 98.3 and 90.9
- Proliferation of Pa16C cells expressing MEK1 mutant constructs ([1]; MEK1S218D/S222D, inhibitor 33.333 nM): 86.8 and 90.6 and 104.9 and 86
- Proliferation of Pa16C cells expressing MEK1 mutant constructs ([1]; MEK1S218D/S222D, inhibitor 100.000 nM): 81.6 and 87.3 and 91 and 73.6
- Proliferation of Pa16C cells expressing MEK1 mutant constructs ([1]; MEK1S218D/S222D, inhibitor 300.000 nM): 72.8 and 76 and 71.6 and 55.5
- Proliferation of Pa16C cells expressing MEK1 mutant constructs ([1]; MEK1WT, inhibitor 0.010 nM): 100
- Proliferation of Pa16C cells expressing MEK1 mutant constructs ([1]; MEK1WT, inhibitor 0.046 nM): 97.2 and 123.9 and 122.4 and 107.7
- Proliferation of Pa16C cells expressing MEK1 mutant constructs ([1]; MEK1WT, inhibitor 11.111 nM): 34.9 and 22.9 and 31.4 and 22.8
- Proliferation of Pa16C cells expressing MEK1 mutant constructs ([1]; MEK1WT, inhibitor 33.333 nM): 19.9 and 13.1 and 14.8 and 12.8
- Proliferation of Pa16C cells expressing MEK1 mutant constructs ([1]; MEK1WT, inhibitor 100.000 nM): 14.4 and 9 and 9.5 and 10.2
- Proliferation of Pa16C cells expressing MEK1 mutant constructs ([1]; MEK1WT, inhibitor 300.000 nM): 9.7 and 8 and 8.2 and 8.6
- sensitivity of CYPA-high versus CYPA-low cells, inhibition of signalling (pERK) [2]: threefold
- EC50 (KRAS^G12V; KRAS^G12V, CRAF RBD, nano-BRET, (95% CI)): 7.66 nM
- Cellular RAS-RAF disruption G12V (KRAS^G12V; RMC-7977 0.0254 nM): 100.00
- Cellular RAS-RAF disruption G12V (KRAS^G12V; RMC-7977 0.05 nM): 95.09 and 96.3702
- Cellular RAS-RAF disruption G12V (KRAS^G12V; RMC-7977 0.08 nM): 99.62
- Cellular RAS-RAF disruption G12V (KRAS^G12V; RMC-7977 0.23 nM): 93.81
- Cellular RAS-RAF disruption G12V (KRAS^G12V; RMC-7977 0.46 nM): 63.26 and 77.9214
- Cellular RAS-RAF disruption G12V (KRAS^G12V; RMC-7977 2.06 nM): 66.75
- Cellular RAS-RAF disruption G12V (KRAS^G12V; RMC-7977 4.12 nM): 17.09 and 32.4499
- Cellular RAS-RAF disruption G12V (KRAS^G12V; RMC-7977 12.35 nM): 8.26 and 13.953
- Cellular RAS-RAF disruption G12V (KRAS^G12V; RMC-7977 18.52 nM): 13.89
- Cellular RAS-RAF disruption G12V (KRAS^G12V; RMC-7977 37.04 nM): 4 and 4.5731
- Cellular RAS-RAF disruption G12V (KRAS^G12V; RMC-7977 55.56 nM): 3.90
